Results as given in paper PMC7999182, “Interaction of Remdesivir with Clinically Relevant Hepatic Drug Uptake Transporters” (Pharmaceutics, 2021).

Key:
OATP1B1 = biological target: T1, OATP1B1 (Homo sapiens, UniProt Q9Y6L6); test: Remdesivir uptake into HEK cells stably expressing OATP1B1 (*1a) vs vector control; assay type: in vitro ADME; conditions: 5 µM remdesivir, 10 min
T1 construct: expressed in transfected cells
T1 sequence (Q9Y6L6 1-691): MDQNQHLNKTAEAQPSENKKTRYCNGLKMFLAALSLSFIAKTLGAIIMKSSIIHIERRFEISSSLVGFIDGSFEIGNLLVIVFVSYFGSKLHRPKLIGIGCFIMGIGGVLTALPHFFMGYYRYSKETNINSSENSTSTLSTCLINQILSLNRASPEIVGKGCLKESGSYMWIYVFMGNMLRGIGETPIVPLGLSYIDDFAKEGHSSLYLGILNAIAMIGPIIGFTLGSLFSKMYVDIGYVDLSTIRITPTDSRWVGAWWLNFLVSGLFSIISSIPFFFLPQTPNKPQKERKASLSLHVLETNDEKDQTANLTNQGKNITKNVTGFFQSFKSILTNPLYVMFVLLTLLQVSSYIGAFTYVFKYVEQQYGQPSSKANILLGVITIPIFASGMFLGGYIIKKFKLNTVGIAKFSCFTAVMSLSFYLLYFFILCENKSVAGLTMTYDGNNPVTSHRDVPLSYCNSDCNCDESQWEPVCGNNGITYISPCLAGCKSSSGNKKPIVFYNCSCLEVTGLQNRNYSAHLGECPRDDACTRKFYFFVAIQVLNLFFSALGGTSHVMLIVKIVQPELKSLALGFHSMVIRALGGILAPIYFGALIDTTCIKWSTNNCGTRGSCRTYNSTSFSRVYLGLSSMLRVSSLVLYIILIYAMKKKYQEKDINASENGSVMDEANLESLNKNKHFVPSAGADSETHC
From the text: (§1) Generation, cultivation and characterization of human embryonic kidney (HEK) cells stably expressing OATP1B1 refseq (=OATP1B1*1a), OATP1B1*1b, OATP1B1*5 and OATP1B1*15 [18], OATP1B3 [19], OATP2B1 [13] and OCT1 [20] have been described previously. OATP1B1 cells were cultivated in minimal essential medium (Life Technologies, Paisley, UK) and OATP1B3, OATP2B1 and OCT1 cells were cultivated in Dulbecco’s modified Eagle medium (Sigma, Darmstadt, Germany). Cultivation media were supplemented with 10% fetal calf serum, 100 U/mL penicillin and 100 µg/mL streptomycin. Cells were grown at 37 °C and 5% CO2. Functionality of the cells was confirmed by measuring uptake of prototypic substrates (see Section 2.3 and supplementary material).
Uptake assays were conducted at 37 °C according to previously described methods. For this, cells were seeded in 24-well plates (320,000 cells/well) and cultured for 2 days. Cells were then incubated for a further 24 h in culture medium with 5 mM butyrate (OATP1B3, OATP2B1, OCT1) or 10 mM butyrate (OATP1B1) to increase protein levels of recombinant transporters. Before the uptake experiments, cells were washed with the respective pre-warmed (37 °C) uptake buffer. The compositions of the uptake buffers were as follows: for OATP1B1, OATP1B3, OATP2B1: 142 mM NaCl, 12.5 mM hydroxyethylpiperazine ethanesulfonic acid, 5 mM KCl, 1 mM KH2PO4, 1.5 mM CaCl2, 1.2 mM MgSO4, 5 mM glucose, pH 7.3; for OCT1: 145 mM NaCl, 5 mM hydroxyethylpiperazine ethanesulfonic acid, 3 mM KCl, 1 mM CaCl2, 0.5 mM MgCl2, 5 mM glucose, pH 7.4. Uptake was initiated by replacing this solution with uptake buffer containing different concentrations of remdesivir as indicated. […]
Remdesivir was determined by UHPLC-MS-MS analysis on an Agilent 1290 infinity UHPLC system coupled to an Agilent 6495B triple quadrupole mass spectrometer (Agilent, Waldbronn, Germany) similar to a recently published method. […]

OCT1 = biological target: T2, OCT1 (Homo sapiens, UniProt O15245); test: Inhibition of OCT1-mediated metformin uptake; assay type: cell-based
T2 construct: expressed in transfected cells
T2 sequence (O15245 1-554): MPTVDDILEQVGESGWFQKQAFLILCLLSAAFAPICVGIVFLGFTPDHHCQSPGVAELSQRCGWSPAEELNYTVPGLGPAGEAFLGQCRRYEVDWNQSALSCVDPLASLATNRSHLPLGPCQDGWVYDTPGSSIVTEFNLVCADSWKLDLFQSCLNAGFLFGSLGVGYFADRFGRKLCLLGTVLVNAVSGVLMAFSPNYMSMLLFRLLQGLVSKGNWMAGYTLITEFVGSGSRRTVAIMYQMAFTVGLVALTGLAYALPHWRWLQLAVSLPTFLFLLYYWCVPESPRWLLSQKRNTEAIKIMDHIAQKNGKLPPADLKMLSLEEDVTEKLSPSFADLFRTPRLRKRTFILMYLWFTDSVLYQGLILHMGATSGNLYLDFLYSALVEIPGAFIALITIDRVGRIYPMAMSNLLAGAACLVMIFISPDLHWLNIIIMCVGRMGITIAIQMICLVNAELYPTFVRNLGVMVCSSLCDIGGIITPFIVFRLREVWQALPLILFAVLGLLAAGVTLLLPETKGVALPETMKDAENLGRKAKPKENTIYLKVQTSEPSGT
From the text: as §1
Prototypic substrate uptake was performed as described previously. For this, uptake solutions contained the respective substrate with tracer amounts of radiolabeled substrate. In case of inhibition studies, uptake solutions additionally contained different concentrations of remdesivir. […] Cells were then lysed with 0.2% sodium dodecyl sulfate and intracellular radioactivity was measured by liquid scintillation counting (Tricarb2800, PerkinElmer Life Sciences GmbH, Rodgau, Germany or Hidex 300SL TDCR liquid scintillation counter, Turku, Finland). […]

## CCC(CC)COC(=O)[C@H](C)N[P@](=O)(OC[C@H]1O[C@@](C#N)(c2ccc3c(N)ncnn23)[C@H](O)[C@@H]1O)Oc1ccccc1 [Remdesivir]
OATP1B1
  Significance of uptake vs control cells: Statistically significant uptake
OATP1B1; transporter-expressing vs control HEK cells
  Remdesivir uptake ratio: 1.3
OATP1B1; OATP1B1*1a cells
  Accumulation vs vector-transfected control cells: moderately higher
OCT1; 5 µM metformin, 5 min uptake, different remdesivir concentrations
  Effect on prototypic substrate uptake: significant concentration-dependent inhibitory effect
OCT1; 10 µM remdesivir, metformin as substrate
  Transporter inhibition at 10 µM: inhibition
